Assay results published in PubChem BioAssay (NCI).
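GI50 = concentration required for 50% inhibition of growth. TGI denotes the concentration required for complete inhibition of growth.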

Assays:
Experiment in all cases: NCI-60 cell line screen, 384-well format
[1] = test system: TK-10 renal
[2] = test system: OVCAR-3 ovarian
[3] = test system: BT-549 breast
[4] = test system: SF-268 CNS
[5] = test system: MDA-MB-468 breast
[6] = test system: U251 glioblastoma
[7] = test system: KM12 colon
[8] = test system: SN12C renal
[9] = test system: IGROV1 ovarian
[10] = test system: MALME-3M melanoma
[11] = test system: NCI-H23 lung
[12] = test system: SNB-19 CNS
[13] = test system: SW-620 colon
[14] = test system: SK-MEL-28 melanoma
[15] = test system: SK-OV-3 ovarian
[16] = test system: RPMI-8226 leukemia
[17] = test system: HCC-2998 colon
[18] = test system: DU-145 prostate
[19] = test system: MCF7 breast
[20] = test system: OVCAR-4 ovarian
[21] = test system: UACC-62 melanoma
[22] = test system: MOLT-4 leukemia
[23] = test system: UACC-257 melanoma
[24] = test system: UO-31 renal
[25] = test system: CCRF-CEM leukemia
[26] = test system: HCT-15 colon
[27] = test system: NCI/ADR-RES ovarian
[28] = test system: MDA-MB-435 melanoma
[29] = test system: CAKI-1 renal
[30] = test system: NCI-H522 lung
[31] = test system: NCI-H460 NSCLC
[32] = test system: A498 renal
[33] = test system: A549 NSCLC
[34] = test system: RXF 393 renal
[35] = test system: K-562 leukemia
[36] = test system: PC-3 prostate
[37] = test system: HT29 colon
[38] = test system: HOP-92 NSCLC
[39] = test system: 786-0 renal
[40] = test system: OVCAR-5 ovarian
[41] = test system: HCT-116 colon
[42] = test system: LOX IMVI melanoma
[43] = test system: SF-539 CNS
[44] = test system: OVCAR-8 ovarian
[45] = test system: HOP-62 NSCLC
[46] = test system: SK-MEL-2 melanoma
[47] = test system: T-47D breast
[48] = test system: SK-MEL-5 melanoma
[49] = test system: MDA-MB-231 breast
[50] = test system: SR leukemia
[51] = test system: NCI-H226 lung
[52] = test system: M14 melanoma
[53] = test system: HL-60(TB) leukemia
[54] = test system: NCI-H322M lung
[55] = test system: ACHN renal
[56] = test system: COLO 205 colon
[57] = test system: SF-295 CNS

SMILES: C[C@H](CCOc1cccc(CC(=O)O)c1)N(Cc1cccc(C(F)(F)F)c1Cl)CC(c1ccccc1)c1ccccc1
- GI50 [1]: 6.54 µM
- TGI [1]: 18.8 µM
- GI50 [2]: 2.79 µM
- TGI [2]: 7.28 µM
- GI50 [3]: 3.27 µM
- TGI [3]: 12.7 µM
- GI50 [4]: 3.04 µM
- TGI [4]: 11 µM
- GI50 [5]: 3.06 µM
- TGI [5]: 7.76 µM
- GI50 [6]: 2.69 µM
- TGI [6]: 7.64 µM
- GI50 [7]: 3.76 µM
- TGI [7]: 12.5 µM
- GI50 [8]: 5.1 µM
- TGI [8]: 16.2 µM
- GI50 [9]: 5.92 µM
- TGI [9]: 18.5 µM
- GI50 [10]: 15 µM
- TGI [10]: 28.3 µM
- GI50 [11]: 2.28 µM
- TGI [11]: 5.31 µM
- GI50 [12]: 4.66 µM
- TGI [12]: 14 µM
- GI50 [13]: 4.66 µM
- TGI [13]: 15.7 µM
- GI50 [14]: 15.8 µM
- TGI [14]: 29.3 µM
- GI50 [15]: 9.13 µM
- TGI [15]: 21.2 µM
- GI50 [16]: 1.5 µM
- TGI [16]: 2.93 µM
- GI50 [17]: 2.58 µM
- TGI [17]: 7.25 µM
- GI50 [18]: 5.06 µM
- TGI [18]: 16.5 µM
- GI50 [19]: 3.9 µM
- TGI [19]: 14 µM
- GI50 [20]: 5.04 µM
- TGI [20]: 18.2 µM
- GI50 [21]: 9.52 µM
- TGI [21]: 21.4 µM
- GI50 [22]: 1.61 µM
- TGI [22]: 3.15 µM
- GI50 [23]: 3.35 µM
- TGI [23]: 13 µM
- GI50 [24]: 5.07 µM
- TGI [24]: 16.7 µM
- GI50 [25]: 1.72 µM
- TGI [25]: 4.13 µM
- GI50 [26]: 3.83 µM
- TGI [26]: 13 µM
- GI50 [27]: 3.54 µM
- TGI [27]: 12.5 µM
- GI50 [28]: 10.9 µM
- TGI [28]: 23 µM
- GI50 [29]: 6.37 µM
- TGI [29]: 18.5 µM
- GI50 [30]: 2.55 µM
- TGI [30]: 9.37 µM
- GI50 [31]: 3.5 µM
- TGI [31]: 11.3 µM
- GI50 [32]: 4.51 µM
- TGI [32]: 15.6 µM
- GI50 [33]: 3.46 µM
- TGI [33]: 12 µM
- GI50 [34]: 2.1 µM
- TGI [34]: 5.24 µM
- GI50 [35]: 3.55 µM
- TGI [35]: 13.4 µM
- GI50 [36]: 4.33 µM
- TGI [36]: 13.1 µM
- GI50 [37]: 4.23 µM
- TGI [37]: 16.2 µM
- GI50 [38]: 2.97 µM
- TGI [38]: 8.88 µM
- GI50 [39]: 4.3 µM
- TGI [39]: 15.4 µM
- GI50 [40]: 11.2 µM
- TGI [40]: 23.3 µM
- GI50 [41]: 3 µM
- TGI [41]: 11.2 µM
- GI50 [42]: 4.34 µM
- TGI [42]: 17.5 µM
- GI50 [43]: 3.92 µM
- TGI [43]: 14.2 µM
- GI50 [44]: 4.56 µM
- TGI [44]: 15.4 µM
- GI50 [45]: 3.86 µM
- TGI [45]: 12.9 µM
- GI50 [46]: 14 µM
- TGI [46]: 27 µM
- GI50 [47]: 1.84 µM
- TGI [47]: 10 µM
- GI50 [48]: 3.29 µM
- TGI [48]: 11.1 µM
- GI50 [49]: 10.2 µM
- TGI [49]: 21.9 µM
- GI50 [50]: 1.73 µM
- TGI [50]: 3.16 µM
- GI50 [51]: 4.17 µM
- TGI [51]: 15.7 µM
- GI50 [52]: 5.84 µM
- TGI [52]: 18.2 µM
- GI50 [53]: 2.26 µM
- TGI [53]: 4.22 µM
- GI50 [54]: 4.7 µM
- TGI [54]: 17.3 µM
- GI50 [55]: 5 µM
- TGI [55]: 16.1 µM
- GI50 [56]: 8.19 µM
- TGI [56]: 20.5 µM
- GI50 [57]: 2.64 µM
- TGI [57]: 7.41 µM
